Among the data in ChEMBL document CHEMBL1144589, “Pharmacophoric features of Pseudomonas aeruginosa deacetylase LpxC inhibitors: an electronic and structural analysis” (Bioorg Med Chem Lett, 2007) are Activity values, retold here.

For this test, the target named is T1, UDP-3-O-acyl-N-acetylglucosamine deacetylase (Pseudomonas aeruginosa (strain ATCC 15692 / PAO1 / 1C / PRS 101 / LMG12228)) (UniProt P47205).
T1 sequence (whole entry): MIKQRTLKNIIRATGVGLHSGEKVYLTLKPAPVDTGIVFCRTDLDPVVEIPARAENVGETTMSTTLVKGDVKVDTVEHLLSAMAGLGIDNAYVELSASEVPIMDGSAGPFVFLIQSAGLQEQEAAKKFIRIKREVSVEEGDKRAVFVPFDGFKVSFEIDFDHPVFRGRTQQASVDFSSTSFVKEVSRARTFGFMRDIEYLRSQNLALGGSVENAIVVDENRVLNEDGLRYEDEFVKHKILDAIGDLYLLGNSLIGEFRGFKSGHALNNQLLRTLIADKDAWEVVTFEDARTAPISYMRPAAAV
The experiment in a line: Inhibition at Pseudomonas aeruginosa deacetylase LpxC receptor.

The source made the active and inactive calls. The calls are words filed in the database; no cut-off is given here.

In the case of `O=C(NO)C1COC(c2cccc(C(F)(F)F)c2)=N1` (stereo unspecified), the outcome was Active.
